From patent publication US10548910B2, “Amido-substituted pyridotriazine derivatives useful as HIV integrase inhibitors” (priority 2015, dated 2020) come the findings set out here.

Molecules are shown by their SMILES. Where two headings read alike, the source gives them in different places.

For the test, the system named is HIV-1. Kind of test: HIV-1 infection assay (MT4-GFP cells, inhibition of reproductive ratio R0). Type of test: cell-based. The protocol:
Assessing Antiviral Potency Using An HIV-1 Infection Assay
HIV-1 replication was monitored using MT4-gag-GFP clone D3 (hereafter designate MT4-GFP), which are MT-4 cells modified to harbor a GFP reporter gene, the expression of which is dependent on the HIV-1 expressed proteins tat and rev. Productive infection of an MT4-GFP cell with HIV-1 results in GFP expression approximately 24 h post-infection.
MT4-GFP cells were maintained at 37° C./5% CO2/90% relative humidity in RPMI 1640 supplemented with 10% fetal bovine serum, 100 U/ml penicillin/streptomycin, and 400 μg/ml G418 to maintain the reporter gene. For infections, MT4-GFP cells were placed in the same medium lacking G418 and infected overnight with H9IIIB or NL4-3 virus at an approximate multiplicity of infection of 0.01 in the same incubation conditions. Cells were then washed and resuspended in either RPMI 1640 containing no serum at 1.6×10^5 cells/mL (serum free conditions), 10% normal human serum at 1.6×10^5 cells/mL (10% NHS conditions) or in 100% normal human serum at 2×10^5 cells/mL (100% NHS conditions). Compound plates were prepared by dispensing compounds taken up in DMSO into wells of 384 well poly D lysine-coated plates (0.2 μl/well) using an ECHO acoustic dispenser. Each compound was tested in a 10 point serial 3-fold dilution (typical final concentrations: 4.2 μM-0.21 nM). Controls included no inhibitor (DMSO only) and a combination of three antiviral agents (efavirenz, indinavir, and the integrase strand transfer inhibitor L-002254051 at final concentrations of 4 μM each). Cells were added (50 μL/well) to compound plates and the infected cells were maintained at 37° C./5% CO2/90% relative humidity.
Infected cells were quantified at two time points, ˜48 h and ˜72 h post-infection, by counting the number of green cells in each well using an Acumen eX3 scanner. The increase in the number of green cells over ˜24 h period gives the reproductive ratio, R0, which is typically 5-15 and has been shown experimentally to be in logarithmic phase (data not shown). Inhibition of R0 is calculated for each well, and IC50 value was determined using non-linear 4-parameter curve fitting.

The mark [1] stands for this setting: Human immunodeficiency virus 1, NL43, MT4-GFP cells infected with H9IIIB or NL4-3 virus, 0% NHS (serum free conditions), read-out: VIKING IP (nM) with 0% NHS.
Setting [2] is: MT4-GFP cells infected with H9IIIB or NL4-3 virus, 100% normal human serum, read-out: VIKING IP (nM) with 100% NHS.
Where [3] appears, read: Human immunodeficiency virus 1, NL43, MT4-GFP cells infected with H9IIIB or NL4-3 virus, 100% normal human serum, read-out: VIKING IP (nM) with 100% NHS.
Where [4] appears, read: MT4-GFP cells infected with H9IIIB or NL4-3 virus, 0% NHS (serum free conditions), read-out: VIKING IP (nM) with 0% NHS.

Take `CN1C(=O)c2c(O)c(=O)c(C(=O)NCc3ccc(F)cc3F)cn2N(C)C12CC[C@@H](P(=O)(O)O)C2` (single isomer, unassigned) [Compound 28]: the IC50 amounted to 221 nM under setting [1] and 420 nM under setting [2].
For `CCOP(=O)(OCC)[C@H]1CCC2(C1)N(C)C(=O)c1c(O)c(=O)c(C(=O)NCc3ccc(F)cc3F)cn1N2C` (single isomer, unassigned) [Compound 24], the IC50 worked out at 9.1 nM under setting [1] and 4120 nM under setting [3].
As to `CCN1C(=O)c2c(O)c(=O)c(C(=O)NCc3ccc(F)cc3F)cn2N(CCP(=O)(N[C@@H](C)C(=O)OC(C)C)Oc2ccccc2)C12CCCC2` (stereo partly shown) [Compound 9], the IC50 (Human immunodeficiency virus 1, NL43, read-out: VIKING IP (nM) with 0% NHS) came to 3.8 nM.
For `CC(C)OC(=O)OCOP(=O)(OCOC(=O)OC(C)C)[C@H]1CCC2(C1)N(C)C(=O)c1c(O)c(=O)c(C(=O)NCc3ccc(F)cc3F)cn1N2C` (single isomer, unassigned) [Compound 23], the IC50 worked out at 0.28 nM under setting [4] and 3.6 nM under setting [2].
Taken in the same sequence, the figures for `CCOP(=O)(OCC)[C@@H]1CCC2(C1)N(C)C(=O)c1c(O)c(=O)c(C(=O)NCc3ccc(F)cc3F)cn1N2C` (single isomer, unassigned) [Compound 30] were 13.7 nM and 1050 nM.
Regarding `CC(C)OC(=O)OCOP(=O)(O)CCN1n2cc(C(=O)NCc3ccc(F)cc3F)c(=O)c(O)c2C(=O)N(C)C12CCCC2` [Compound 8], the IC50 was 2.3 nM under setting [1] and 660 nM under setting [3].
`CCN1C(=O)c2c(O)c(=O)c(C(=O)NCc3ccc(F)cc3F)cn2N(CCP(=O)(O)O)C12CCCC2` [Compound 34]: the IC50 was determined as 15.4 nM under setting [1] and 2490 nM under setting [3].
In the case of `CCOP(=O)(OCC)[C@@H]1CCC2(C1)N(C)C(=O)c1c(O)c(=O)c(C(=O)NCc3ccc(F)cc3F)cn1N2C` (single isomer, unassigned) [Compound 27], the IC50 is, setting by setting: under setting [4], 5.6 nM; under setting [2], 78.2 nM.
As for `CC(C)OC(=O)OCOP(=O)(OCOC(=O)OC(C)C)[C@@H]1CCC2(C1)N(C)C(=O)c1c(O)c(=O)c(C(=O)NCc3ccc(F)cc3F)cn1N2C` (single isomer, unassigned) [Compound 29], the IC50 is, setting by setting: under setting [3], 4.8 nM; under setting [4], 0.2 nM.
With `CCOP(=O)(OCC)[C@H]1CCC2(C1)N(C)C(=O)c1c(O)c(=O)c(C(=O)NCc3ccc(F)cc3F)cn1N2C` (stereo partly shown) [Compound 21], the IC50 by setting is: under setting [1], 5.3 nM; under setting [3], 32.7 nM.
Take `CN1C(=O)c2c(O)c(=O)c(C(=O)NCc3ccc(F)cc3F)cn2N(C)C12CC[C@@H](P(=O)(O)O)C2` (single isomer, unassigned) [Compound 31]: the IC50 under setting [4] is 206 nM and the IC50 under setting [2] was 1070 nM.
Take `CN1C(=O)c2c(O)c(=O)c(C(=O)NCc3ccc(F)cc3F)cn2N(CCP(=O)(O)O)C12CCCC2` [Compound 4]: the IC50 is 32.2 nM under setting [1] and 2750 nM under setting [3].
In the case of `CC(C)OC(=O)OCOP(=O)(CCN1n2cc(C(=O)NCc3ccc(F)cc3F)c(=O)c(O)c2C(=O)N(C)C12CCCC2)OCOC(=O)OC(C)C` [Compound 7], the IC50 stood at 0.2 nM under setting [1] and 2.1 nM under setting [3].
With `CN1C(=O)c2c(O)c(=O)c(C(=O)NCc3ccc(F)cc3F)cn2N(C)C12CC[C@H](P(=O)(O)O)C2` (single isomer, unassigned) [Compound 25], the IC50 under setting [1] came out at 190 nM and the IC50 under setting [2] amounted to 1070 nM.
For the molecule `CCN1C(=O)c2c(O)c(=O)c(C(=O)NCc3ccc(F)cc3F)cn2N(C)C12CCC(P(=O)(O)O)C2` (stereo not shown) [Compound 36], the IC50 reads like this: under setting [1], 187 nM; under setting [3], 583 nM.
On to `CC(C)OC(=O)OCOP(=O)(OCOC(=O)OC(C)C)[C@@H]1CCC2(C1)N(C)C(=O)c1c(O)c(=O)c(C(=O)NCc3ccc(F)cc3F)cn1N2C` (single isomer, unassigned) [Compound 32], for which the IC50 runs as follows: under setting [4], 0.9 nM; under setting [2], 7 nM.
On the same counts, the results for `CN1C(=O)c2c(O)c(=O)c(C(=O)NCc3ccc(F)cc3F)cn2N(C)C12CC[C@H](P(=O)(O)O)C2` (single isomer, unassigned) [Compound 22] are 120 nM and 340 nM.
As to `CCOP(=O)(OCC)C1CCC2(C1)N(CC)C(=O)c1c(O)c(=O)c(C(=O)NCc3ccc(F)cc3F)cn1N2C` (stereo not shown) [Compound 35], the IC50 is, setting by setting: under setting [1], 9.4 nM; under setting [3], 126 nM.
As to `CC(C)OC(=O)OCOP(=O)(OCOC(=O)OC(C)C)[C@H]1CCC2(C1)N(C)C(=O)c1c(O)c(=O)c(C(=O)NCc3ccc(F)cc3F)cn1N2C` (single isomer, unassigned) [Compound 26], the IC50 stood at 1 nM under setting [4] and 35.9 nM under setting [2].
`CCN1C(=O)c2c(O)c(=O)c(C(=O)NCc3ccc(F)cc3F)cn2N(C)C12CCC(P(=O)(OCOC(=O)OC(C)C)OCOC(=O)OC(C)C)C2` (stereo not shown) [Compound 37]: the IC50 was 0.2 nM under setting [1] and 2.8 nM under setting [3].
As to `CCOP(=O)(CCN1n2cc(C(=O)NCc3ccc(F)cc3F)c(=O)c(O)c2C(=O)N(C)C12CCCC2)OCC` [Compound 2], the IC50 is, setting by setting: under setting [1], 2.8 nM; under setting [3], 81.1 nM.
On the same counts, the results for `CCOP(=O)(CCN1n2cc(C(=O)NCc3ccc(F)cc3F)c(=O)c(O)c2C(=O)N(CC)C12CCCC2)OCC` [Compound 33] are 4.4 nM and 163 nM.
